Experimental data published in US10829481B2, “Benzimidazole derivatives as modulators of ROR-gamma” (Vitae Pharmaceuticals, LLC, priority 2016, dated 2020).

Tests used:
[1] = target: recombinant RORγ Ligand Binding Domain (LBD) protein (Homo sapiens (Human), UniProt P51449); test: Radio-Ligand RORγ Binding Assay (Assay 1); conditions: competition with 25-hydroxy [26,27-3H]-cholesterol, SPA
Protocol: Radio-Ligand RORγ Binding Assay (Assay 1)
Compounds described herein were tested for ability to bind to RORγ in a cell-free competition assay with commercially available radio-ligand (RL), 25-hydroxy [26,27-^3H]-cholesterol (PerkinElmer, Cat. #NET674250UC), for a ligand binding site on a recombinant RORγ Ligand Binding Domain (LBD) protein expressed as a 6×His-Glutathione-S-Transferase (GST) fusion. The assay was performed in 96-well SPA plates (PerkinElmer, Cat. #1450-401) in 50 mM HEPES buffer, pH 7.4, containing 150 mM NaCl, 5 mM MgCl2, 10% (v/v) glycerol, 2 mM CHAPS, 0.5 mM β-octylglucopyranoside and 5 mM DTT. Tested compounds were dissolved in DMSO, and semi-log (3.162×) serial dilutions of the compounds were prepared in the same solvent. Two μL of the DMSO solutions were mixed with 28 μL of 8.6 nM 25-hydroxy [26,27-^3H]-cholesterol and 50 μL of 24 nM RORγ LBD. The plate was shaken at 700 rpm for 20 min and incubated for 10 min at rt, after which 40 μL of poly-Lys YSi SPA beads (PerkinElmer, Cat. #RPNQ0010) were added to achieve […] of the beads per well. The plate was incubated on an orbital shaker for 20 min and then for 10 min without agitation at rt. SPA signal for tritium beta radiation was registered on PerkinElmer Microbeta plate reader. […] The percent inhibition vs. concentration data were fit into a four-parameter model, and IC50 values were calculated from the fit as the concentrations corresponding to the inflection points on the dose-response curves. Inhibitory constants (Ki) were calculated using the following equation, where [RL] is the concentration in the assay and KD is a dissociation constant of 25-hydroxy [26,27-^3H]-cholesterol: […]

[2] = target: full-length RORγt in Jurkat cells (Homo sapiens (Human), UniProt P51449); test: RORγt 5×RORE Assay in Jurkat Cells (Assay 2); format: cell-based; conditions: 5×RORE Nanoluc luciferase reporter
Chain of full-length RORγt in Jurkat cells (P51449 other isoform, or with tags, fused parts or gaps): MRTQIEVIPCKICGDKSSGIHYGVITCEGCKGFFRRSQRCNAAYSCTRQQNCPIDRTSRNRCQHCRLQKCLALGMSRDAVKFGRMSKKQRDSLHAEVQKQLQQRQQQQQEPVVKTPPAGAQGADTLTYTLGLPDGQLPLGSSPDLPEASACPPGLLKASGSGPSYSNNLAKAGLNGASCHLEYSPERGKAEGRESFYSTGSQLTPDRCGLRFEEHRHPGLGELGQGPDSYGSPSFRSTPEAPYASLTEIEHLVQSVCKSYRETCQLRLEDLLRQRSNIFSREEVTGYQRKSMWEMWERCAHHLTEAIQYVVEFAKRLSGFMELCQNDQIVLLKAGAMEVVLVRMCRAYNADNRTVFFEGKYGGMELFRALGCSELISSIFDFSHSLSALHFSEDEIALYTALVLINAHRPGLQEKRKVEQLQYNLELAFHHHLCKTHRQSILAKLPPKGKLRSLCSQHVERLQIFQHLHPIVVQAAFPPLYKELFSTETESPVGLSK
Protocol: RORγt 5×RORE Assay in Jurkat Cells (Assay 2)
Compounds described herein were tested for RORγ inverse agonist activity in a cell-based, transcriptional activity assay. Secreted Nanoluc® luciferase was used as a reporter for transcriptional activity of the full-length RORγt in Jurkat cells (ATCC, Cat. #TIB-152). […] (Promega, Cat. #N1021) using KpnI and HindIII restriction sites. […] After 5-6 hrs of incubation at 37° C./5% CO2, the cells were collected, resuspended in phenol-red free RPMI media containing 10% (v/v) delipidated FBS (Hyclone, Cat. #SH30855.03) and dispensed into 96-well clear bottom tissue culture plates (CoStar, Cat. #3603), at 80,000 cells per well. Tested compounds were added to the cells in the same media (final concentration of DMSO was 0.1% (v/v)), and the plates were incubated at 37° C./5% CO2 for 16-18 hrs. Luciferase activity in the conditioned supernatants was determined with NanoGlo® assay reagents (Promega, Cat. #N1130).

Chain of recombinant RORγ Ligand Binding Domain (LBD) protein (P51449 269-508): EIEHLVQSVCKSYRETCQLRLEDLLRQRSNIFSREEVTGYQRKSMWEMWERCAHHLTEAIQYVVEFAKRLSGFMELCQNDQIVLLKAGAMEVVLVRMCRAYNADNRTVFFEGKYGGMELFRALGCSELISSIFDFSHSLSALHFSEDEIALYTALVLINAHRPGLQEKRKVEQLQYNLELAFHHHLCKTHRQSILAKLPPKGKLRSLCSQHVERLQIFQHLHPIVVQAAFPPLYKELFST

Ki [1] | IC50 [2] | Structure (SMILES)
< 100 nM | < 100 nM | CCS(=O)(=O)c1ccc([C@H](O)C(=O)Nc2ccc3c(c2)nc(C(F)(F)F)n3Cc2cccc3c2OC(F)(F)O3)cc1 (mixture of isomers) [I-170.1, (S)-N-(1-((2,2-difluorobenzo[d][1,3]dioxol-4-yl)methyl)-2-(trifluoromethyl)-1H-benzo[d]imidazol-5-yl)-2-(4-(ethylsulfonyl)phenyl)-2-hydroxyacetamide and (R)-N-(1-((2,2-difluorobenzo[d][1,3]dioxol-4-yl)methyl)-2-(trifluoromethyl)-1H-benzo[d]imidazol-5-yl)-2-(4-(ethylsulfonyl)phenyl)-2-hydroxyacetamide]
< 100 nM | < 100 nM | CCS(=O)(=O)c1ccc([C@@H](O)C(=O)Nc2ccc3c(c2)nc(C(F)(F)F)n3Cc2cccc3c2OC(F)(F)O3)cc1 (mixture of isomers) [I-170.2, (S)-N-(1-((2,2-difluorobenzo[d][1,3]dioxol-4-yl)methyl)-2-(trifluoromethyl)-1H-benzo[d]imidazol-5-yl)-2-(4-(ethylsulfonyl)phenyl)-2-hydroxyacetamide and (R)-N-(1-((2,2-difluorobenzo[d][1,3]dioxol-4-yl)methyl)-2-(trifluoromethyl)-1H-benzo[d]imidazol-5-yl)-2-(4-(ethylsulfonyl)phenyl)-2-hydroxyacetamide]
< 100 nM | < 100 nM | CCS(=O)(=O)c1ccc(CC(=O)Nc2ccc3c(c2)nc(C(F)(F)F)n3Cc2cccc3c2OC(F)(F)O3)cc1 [I-1, N-(1-((2,2-difluorobenzo[d][1,3]dioxol-4-yl)methyl)-2-(trifluoromethyl)-1H-benzo[d]imidazol-5-yl)-2-(4-(ethylsulfonyl)phenyl)acetamide]
< 100 nM | < 100 nM | CS(=O)(=O)c1ccc(CC(=O)Nc2ccc3c(c2)nc(C(F)(F)F)n3Cc2cccc3c2OC(F)(F)O3)cc1 [I-2, N-(1-((2,2-difluorobenzo[d][1,3]dioxol-4-yl)methyl)-2-(trifluoromethyl)-1H-benzo[d]imidazol-5-yl)-2-(4-(methylsulfonyl)phenyl)acetamide]
< 100 nM | < 100 nM | O=C(Cc1ccc(S(=O)(=O)CCO)cc1)Nc1ccc2c(c1)nc(C(F)(F)F)n2Cc1cccc2c1OC(F)(F)O2 [I-3, N-(1-((2,2-difluorobenzo[d][1,3]dioxol-4-yl)methyl)-2-(trifluoromethyl)-1H-benzo[d]imidazol-5-yl)-2-(4-((2-hydroxyethyl)sulfonyl)phenyl)acetamide]
< 100 nM | < 100 nM | COCCS(=O)(=O)c1ccc(CC(=O)Nc2ccc3c(c2)nc(C(F)(F)F)n3Cc2cccc3c2OC(F)(F)O3)cc1 [I-4, N-(1-((2,2-difluorobenzo[d][1,3]dioxol-4-yl)methyl)-2-(trifluoromethyl)-1H-benzo[d]imidazol-5-yl)-2-(4-((2-methoxyethyl)sulfonyl)phenyl)acetamide]
< 100 nM | < 100 nM | CNS(=O)(=O)c1ccc(CC(=O)Nc2ccc3c(c2)nc(C(F)(F)F)n3Cc2cccc3c2OC(F)(F)O3)cc1 [I-5, N-(1-((2,2-difluorobenzo[d][1,3]dioxol-4-yl)methyl)-2-(trifluoromethyl)-1H-benzo[d]imidazol-5-yl)-2-(4-(N-methylsulfamoyl)phenyl)acetamide]
< 100 nM | > 1000 nM | N#Cc1ccc(CC(=O)Nc2ccc3c(c2)nc(C(F)(F)F)n3Cc2cccc3c2OC(F)(F)O3)cc1 [I-6, 2-(4-cyanophenyl)-N-(1-((2,2-difluorobenzo[d][1,3]dioxol-4-yl)methyl)-2-(trifluoromethyl)-1H-benzo[d]imidazol-5-yl)acetamide]
< 100 nM | < 100 nM | CCS(=O)(=O)c1ccc(CC(=O)Nc2ccc3c(c2)nc(C2CC2)n3Cc2cccc3c2OC(F)(F)O3)cc1 [I-9, N-(2-cyclopropyl-1-((2,2-difluorobenzo[d][1,3]dioxol-4-yl)methyl)-1H-benzo[d]imidazol-5-yl)-2-(4-(ethylsulfonyl)phenyl)acetamide]
< 100 nM | > 1000 nM | CS(=O)(=O)N1CCC(CC(=O)Nc2ccc3c(c2)nc(C(F)(F)F)n3Cc2cccc3c2OC(F)(F)O3)CC1 [I-10, N-(1-((2,2-difluorobenzo[d][1,3]dioxol-4-yl)methyl)-2-(trifluoromethyl)-1H-benzo[d]imidazol-5-yl)-2-(1-(methylsulfonyl)piperidin-4-yl)acetamide]

Structure (SMILES) | Ki [1] | IC50 [2]
CCS(=O)(=O)c1ccc(CNC(=O)c2ccc3c(c2)nc([C@H](C)OC)n3Cc2cccc3c2OC(F)(F)O3)cc1 (mixture of isomers) [I-49.1, (S)-1-((2,2-difluorobenzo[d][1,3]dioxol-4-yl)methyl)-N-(4-(ethylsulfonyl)benzyl)-2-(1-methoxyethyl)-1H-benzo[d]imidazole-5-carboxamide and (R)-1-((2,2-difluorobenzo[d][1,3]dioxol-4-yl)methyl)-N-(4-(ethylsulfonyl)benzyl)-2-(1-methoxyethyl)-1H-benzo[d]imidazole-5-carboxamide] | < 100 nM | < 100 nM
CCS(=O)(=O)c1ccc(CNC(=O)c2ccc3c(c2)nc([C@@H](C)OC)n3Cc2cccc3c2OC(F)(F)O3)cc1 (mixture of isomers) [I-49.2, (S)-1-((2,2-difluorobenzo[d][1,3]dioxol-4-yl)methyl)-N-(4-(ethylsulfonyl)benzyl)-2-(1-methoxyethyl)-1H-benzo[d]imidazole-5-carboxamide and (R)-1-((2,2-difluorobenzo[d][1,3]dioxol-4-yl)methyl)-N-(4-(ethylsulfonyl)benzyl)-2-(1-methoxyethyl)-1H-benzo[d]imidazole-5-carboxamide] | < 100 nM | < 100 nM
CS(=O)(=O)N1CCC([C@@H](CO)NC(=O)c2ccc3c(c2)nc(C(F)(F)F)n3Cc2cccc3c2OC(F)(F)O3)CC1 (mixture of isomers) [I-164.1, (R)-1-((2,2-difluorobenzo[d][1,3]dioxol-4-yl)methyl)-N-(2-hydroxy-1-(1-(methylsulfonyl)piperidin-4-yl)ethyl)-2-(trifluoromethyl)-1H-benzo[d]imidazole-5-carboxamide and (S)-1-((2,2-difluorobenzo[d][1,3]dioxol-4-yl)methyl)-N-(2-hydroxy-1-(1-(methylsulfonyl)piperidin-4-yl)ethyl)-2-(trifluoromethyl)-1H-benzo[d]imidazole-5-carboxamide] | < 100 nM | < 100 nM
CS(=O)(=O)N1CCC([C@H](CO)NC(=O)c2ccc3c(c2)nc(C(F)(F)F)n3Cc2cccc3c2OC(F)(F)O3)CC1 (mixture of isomers) [I-164.2, (R)-1-((2,2-difluorobenzo[d][1,3]dioxol-4-yl)methyl)-N-(2-hydroxy-1-(1-(methylsulfonyl)piperidin-4-yl)ethyl)-2-(trifluoromethyl)-1H-benzo[d]imidazole-5-carboxamide and (S)-1-((2,2-difluorobenzo[d][1,3]dioxol-4-yl)methyl)-N-(2-hydroxy-1-(1-(methylsulfonyl)piperidin-4-yl)ethyl)-2-(trifluoromethyl)-1H-benzo[d]imidazole-5-carboxamide] | < 100 nM | < 100 nM
CCS(=O)(=O)c1ccc([C@H](CO)NC(=O)c2ccc3c(c2)nc(C(F)(F)F)n3Cc2cccc3c2OC(F)(F)O3)cc1 [I-11.1, (R)-1-((2,2-difluorobenzo[d][1,3]dioxol-4-yl)methyl)-N-(1-(4-(ethylsulfonyl)phenyl)-2-hydroxyethyl)-2-(trifluoromethyl)-1H-benzo[d]imidazole-5-carboxamide] | < 100 nM | < 100 nM
CCS(=O)(=O)c1ccc([C@@H](CO)NC(=O)c2ccc3c(c2)nc(C(F)(F)F)n3Cc2cccc3c2OC(F)(F)O3)cc1 [I-11.2, (S)-1-((2,2-difluorobenzo[d][1,3]dioxol-4-yl)methyl)-N-(1-(4-(ethylsulfonyl)phenyl)-2-hydroxyethyl)-2-(trifluoromethyl)-1H-benzo[d]imidazole-5-carboxamide] | < 100 nM | < 100 nM
